Here are results for two molecules from patent publication US20240398786A1, “7-ETHYL-10-HYDROXY-CAMPTOTHECIN (SN-38) ALBUMIN CONJUGATES FOR TREATMENT OF CANCERS” (Ohio State Innovation Foundation, priority 2021, published 2024).

For one data set, the system named is H23 shCtrl/shCav-1 cells. The data set can be described thus: Uptake by direct fluorescence in H23 shCtrl vs shCav-1 cells. The format is cell-based. The conditions noted are these: 250 nM pulsed 2 h. As for the experimental part: (§1) Cells were pulsed either 1 hour with 0.1% FITC-HAS or 2 hours with 250 nM SN/38/SSH20 prior to fixation. When applicable, in order to remove membrane-bound albumin, two acid/salt washes were performed with 0.1M glycine and 0.1M NaCl, pH 3.02 for 2 minutes each, followed by two washes with phosphate buffer saline (PBS). Cells were then fixed with 2% paraformaldehyde for 15 minutes at room temperature and washed 1×PBS 2 times for 5 minutes each. Cells were incubated with 0.1% Triton-x-100 for 10 min on ice to permeabilize, then washed twice with 1×PBS prior to blocking with 3% bovine serum albumin in 1×PBS overnight at 4° C. In a humidified chamber, primary antibodies (1:50) in blocking buffer were added and incubated for 1 hour at 4° C., followed by three 10 minute rinses with blocking buffer. Secondary antibody (conjugated to Alexa Fluor 488, 1:1000) was added along with DAPI for 1 hour at room temperature. Cells were then rinsed, and coverslips were mounted onto slides and then sealed. Cells were then imaged with a confocal microscope with locked settings across the control and respective experimental conditions. For auto-fluorescence experiments with SN-30 and SSH20, images were taken at an emission wavelength of 543 nm. ImageJ was used to measure the fluorescence intensity of individual cells.

The subject of a further data set is MP2 cell line. Put plainly: Inhibitory activity of SN-38/HSA conjugates against the MP2 cell line. The format is cell-based. As for the experimental part: AlamarBlue proliferation assay was performed according to the manufacturer's instructions (BioRad Antibodies, Oxford, UK). Briefly, cells were seeded in 96-well plates in 4 replicates at a density of 100-300 cells per well in 100 μL medium and treated as described. Seventy-two hours after plating, alamarBlue reagent was added and incubated at 37° C. for 4-8 hours, and absorbance was measured at 570 and 600 nm.

For data set [1] the following is noted: pharmaceutical solvents; cited from earlier work.
The subject of data set [2] is MIA-PaCa-2 (MP2) shCtrl/shCav-1 cells. The data set can be described thus: Uptake by direct fluorescence in MP2 shCtrl vs shCav-1 cells. The format is cell-based. The conditions noted are these: 250 nM pulsed 2 h. As for the experimental part:
as §1

The test system of data set [3] is H23-shCtrl/shCav-1 tumors. Put plainly: H23-shCtrl/shCav-1 flank xenografts in athymic nude mice. The format is in vivo. The conditions noted are these: SSH20 10 mg/kg or molar equivalent of irinotecan, intravenous retro-orbital. On the procedure: (§2) Briefly, 180 μL of SSH20 was added to 1620 μL of pooled human serum off the clot (Innovative Research, Novi, MI) to form a 10% SSH20 solution, which was incubated at 37° C. Aliquots were collected at preset time points, a fixed amount of internal standard (10-hydroxycamptothecin, 10-HCPT) was added to each sample aliquot and the solutions were mixed thoroughly on vortex prior to protein precipitation by acetonitrile. Protein precipitates were pulled down by 17,000×g centrifugation for 5 minutes. The dissociated SN-38 in the supernatant was analyzed by reverse-phase HPLC, using parameters described above, detected by PDA at 368 nm. SN-38/internal standard peak ratios were correlated with an SN-38 standard curve (using the same preparation method) to obtain the concentrations of released SN-38. The plot of the kinetics of SN-38 release was generated by Prism, and the half-life was calculated by one-phase exponential association. […] To obtain a tumor growth curve, perpendicular diameter measurements of each tumor were measured every 1-5 days from the first day of injection with digital calipers, and volumes were calculated using the formula (L×W×W)/2. Weight and clinical signs of toxicity were monitored several times per week.

Data set [4] relates to MP2-shCtrl/shCav-1 tumors. Put plainly: MP2-shCtrl/shCav-1 flank xenografts in athymic nude mice. The conditions noted are these: SSH20 10 mg/kg or molar equivalent of irinotecan, intravenous retro-orbital. The format is in vivo. As for the experimental part: as §2

The structures appear in SMILES notation.

As usually defined, the IC50 is the point on the concentration scale where inhibition reaches its midpoint. High values mean weaker potency in that assay, low ones greater potency in that assay.

For the molecule `CCc1c2c(nc3ccc(O)cc13)-c1cc3c(c(=O)n1C2)COC(=O)[C@]3(O)CC` [SN-38, 7-ethyl-10-hydroxy-camptothecin], the “difference in SN-38 autofluorescent signal between shCtrl and shCav-1 cells” value (in the data set with H23 shCtrl/shCav-1 cells; in data set [2]) was “no discernable difference” each time. In the data set with MP2 cell line, this molecule showed an IC50 of 495 nM. In addition, the “solubility, in words” value in data set [1] is “virtually insoluble in any pharmaceutical solvent”.

For `CCc1c2c(nc3ccc(OC(=O)N4CCC(N5CCCCC5)CC4)cc13)-c1cc3c(c(=O)n1C2)COC(=O)[C@]3(O)CC` [irinotecan, Irinotecan], the tumor growth rate result in data set [3] and in data set [4] was “not reduced” in each case.
